According to patent US6706740B2, “Fungicidal heterocyclic aromatic amides and their compositions, methods of use and preparation” (Dow AgroSciences LLC, priority 1999, dated 2004):
Where two headings read alike, the source gives them in different places.

Columns and labels:
[1] = tested on: Leptosphaeria nodorum—LEPTNO; experiment: Glume Blotch of Wheat, in vivo whole plant, 24 Hour Protectant; details: control of fungal infection vs untreated plants; for pest or weed control at 100 ppm: Leptosphaeria, read-out: LEPTNO in vivo 1 Day Protectant
[2] = tested on: Rhizoctonia solani (RHIZSO); experiment: microbe, parasite or virus in culture; format: cell-based; details: Rhizoctonia solani, read-out: RHIZSO in vitro Growth Inhibition
[3] = tested on: Stagonospora nodorum (Leptosphaeria nodorum—LEPTNO); experiment: In vitro fungal growth inhibition, Stagonospora nodorum (LEPTNO); format: cell-based; details: Leptosphaeria, read-out: LEPTNO in vitro Growth Inhibition
[4] = tested on: Mycosphaerella graminicola (Septoria tritici—SEPTTR); experiment: In vitro fungal growth inhibition, Mycosphaerella graminicola (SEPTTR); format: cell-based; details: Zymoseptoria tritici, read-out: SEPTTR in vitro Growth Inhibition
Ustilago maydis (USTIMA) = experiment: microbe, parasite or virus in culture; format: cell-based; details: Mycosarcoma maydis, read-out: USTIMA in vitro Growth Inhibition
[5] = tested on: Phytophthora infestans (PHYTIN); experiment: microbe, parasite or virus in culture; format: cell-based; details: Phytophthora infestans, read-out: PHYTIN in vitro Growth Inhibition
[6] = tested on: Magnaporthe grisea (Pyricularia oryzae—PYRIOR); experiment: microbe, parasite or virus in culture; format: cell-based; details: Pyricularia oryzae, read-out: PYRIOR in vitro Growth Inhibition
Erysiphe graminis—ERYSGT = experiment: Powdery Mildew of Wheat, in vivo whole plant, 24 Hour Protectant; details: Erysiphe, control of fungal infection vs untreated plants, read-out: ERYSGT in vivo 1 Day Protectant
[7] = tested on: Phytophthora infestans—PHYTIN; experiment: whole plant or invertebrate; format: in vivo; details: Phytophthora, in Solanum lycopersicum, 24 h, read-out: PHYTIN in vivo 1 Day Protectant
Septoria tritici—SEPTTR = experiment: Leaf Blotch of Wheat, in vivo whole plant, 24 Hour Protectant; details: Zymoseptoria tritici, 24 h, control of fungal infection vs untreated plants, read-out: SEPTTR in vivo 1 Day Protectant
[8] = tested on: Puccinia recondita—PUCCRT; experiment: Brown Rust of Wheat, in vivo whole plant, 24 Hour Protectant; details: Puccinia, control of fungal infection vs untreated plants, read-out: PUCCRT in vivo 1 Day Protectant
[9] = 100 ppm spray, 24 hour protectant, wheat
[10] = wheat plants sprayed at 100 ppm, inoculated after 24 hours
[11] = 100 ppm spray, wheat, 24 hour protectant

Compound | pest or weed control at 100 ppm [1, 9] [%] | inhibition at 25 ppm [2] [%] | inhibition at 25 ppm ([3]; 25 ppm in growth medium) [%] | inhibition at 25 ppm ([4]; 25 ppm in growth medium) [%] | inhibition at 25 ppm (Ustilago maydis (USTIMA)) [%] | inhibition at 25 ppm [5] [%] | inhibition at 25 ppm [6] [%] | pest or weed control at 100 ppm (Erysiphe graminis—ERYSGT; [9]) [%] | pest or weed control at 100 ppm [7] [%] | pest or weed control at 100 ppm (Septoria tritici—SEPTTR; [9]) [%] | pest or weed control at 100 ppm [8, 9] [%] | melting point | pest or weed control at 100 ppm [1, 10] [%] | inhibition at 25 ppm ([3]; 25 ppm in the growth medium) [%] | inhibition at 25 ppm ([4]; 25 ppm in the growth medium) [%] | pest or weed control at 100 ppm (Erysiphe graminis—ERYSGT; [10]) [%] | pest or weed control at 100 ppm (Septoria tritici—SEPTTR; [10]) [%] | pest or weed control at 100 ppm [8, 10] [%] | further results
Cc1ccc(CNC(=O)c2ncccc2O)cc1 [Compound 223] | < 25 | < 80 | > 80 | < 80 | > 80 | > 80 | > 80 | < 25 | < 25 | < 25 | < 25 | 83 to 84 °C | – | – | – | – | – | – | –
COc1ccnc(C(=O)NC2CSCC(c3ccccc3)C2)c1O (stereo not drawn) [Compound 324] | – | > 80 | > 80 | > 80 | > 80 | > 80 | < 80 | 25 to 74 | < 25 | 25 to 74 | 25 to 74 | 141 to 143 °C | – | – | – | – | – | – | LEPTNO in vivo 1 Day Protectant [1, 9]: + +
CC(C)C(=O)O[C@H]1[C@H](C)OC(=O)[C@@H](NC(=O)c2cc(O)cnc2O)COC(=O)[C@@H]1Cc1ccccc1 [Compound 527] | – | < 80 | – | – | < 80 | < 80 | < 80 | – | < 25 | – | – | 120 to 130 °C | < 25 | < 80 | < 80 | < 25 | 25 to 74 | 25 to 74 | –
Cc1ncc(C(=O)NC2CC(C)(C)CC(C)(C)C2)c(O)n1 [Compound 541] | – | < 80 | – | – | < 80 | < 80 | < 80 | – | < 25 | – | – | > 300 °C | < 25 | < 80 | < 80 | < 25 | 25 to 74 | < 25 | –
CSc1nnc(C(=O)NC2CCCCCCC2)c(O)n1 [Compound 546] | – | < 80 | – | – | < 80 | > 80 | < 80 | – | < 25 | – | – | 208 to 213 °C | 25 to 74 | < 80 | < 80 | < 25 | 25 to 74 | 25 to 74 | –
CC(C)C(=O)O[C@H]1[C@H](C)OC(=O)[C@@H](NC(=O)c2cncnc2O)COC(=O)[C@@H]1Cc1ccccc1 [Compound 540] | – | < 80 | – | – | < 80 | < 80 | < 80 | – | < 25 | – | – | 195 °C (dec.) | < 25 | < 80 | < 80 | < 25 | 25 to 74 | < 25 | –
Cc1ccnc(C(=O)NC2CC(C)(C)CC(C)(C)C2)c1O [Compound 236] | < 25 | < 80 | > 80 | < 80 | < 80 | < 80 | < 80 | < 25 | < 25 | < 25 | < 25 | 42 to 45 °C | – | – | – | – | – | – | –
COc1ccnc(C(=O)NC2CCN(Cc3ccc(C)cc3)CC2)c1O [Compound 306] | < 25 | < 80 | < 80 | < 80 | < 80 | < 80 | < 80 | < 25 | < 25 | 25 to 74 | < 25 | 150 to 152 °C | – | – | – | – | – | – | –
O=C(Nc1ccc(Oc2cccc(C(F)(F)F)c2)cc1)c1nccnc1O [Compound 535] | – | > 80 | – | – | < 80 | < 80 | < 80 | – | < 25 | – | – | 239 to 243 °C (dec.) | 25 to 74 | < 80 | < 80 | < 25 | 25 to 74 | 25 to 74 | –
CCOC(=O)c1cc(Oc2ccc(C(F)(F)F)cc2)ccc1NC(=O)c1nccc(OC)c1O [Compound 427] | – | < 80 | < 80 | < 80 | < 80 | < 80 | < 80 | – | < 25 | – | – | 145 to 147 °C | – | – | – | – | – | – | pest or weed control at 100 ppm [1, 11]: 25 to 74%; pest or weed control at 100 ppm (Erysiphe graminis—ERYSGT; [11]): < 25%; pest or weed control at 100 ppm (Septoria tritici—SEPTTR; [11]): 25 to 74%; pest or weed control at 100 ppm [8, 11]: 25 to 74%
COc1ccnc(C(=O)N[C@H]2CC[C@@H](Oc3ccc(C(F)(F)F)cc3)CC2)c1O [Compound 271] | 25 to 74 | > 80 | > 80 | > 80 | > 80 | > 80 | > 80 | < 25 | 25 to 74 | 25 to 74 | < 25 | 181 to 183 °C (dec.) | – | – | – | – | – | – | –
Cc1cc(C)c(C(=O)NC2CC(C)(C)CC(C)(C)C2)c(O)n1 [Compound 528] | – | < 80 | – | – | < 80 | < 80 | < 80 | – | < 25 | – | – | 286 to 288 °C | < 25 | < 80 | < 80 | < 25 | 25 to 74 | < 25 | –
COc1ccnc(C(=O)NC2CC(C)(C)CC(C)(C(=O)c3ccccc3)C2)c1O (stereo not drawn) [Compound 260] | 25 to 74 | < 80 | > 80 | < 80 | < 80 | < 80 | < 80 | < 25 | < 25 | 25 to 74 | < 25 | 147 to 149 °C | – | – | – | – | – | – | –
CC(C)C(=O)O[C@H]1[C@H](C)OC(=O)[C@@H](NC(=O)c2cn(C)nc2O)COC(=O)[C@@H]1Cc1ccccc1 [Compound 558] | – | < 80 | – | – | < 80 | < 80 | < 80 | – | < 25 | – | – | 199 to 205 °C | 25 to 74 | < 80 | < 80 | < 25 | 25 to 74 | 25 to 74 | –
O=C(NCc1ccc(Cl)cc1)c1ncccc1O [Compound 220] | < 25 | > 80 | > 80 | > 80 | > 80 | > 80 | > 80 | < 25 | 25 to 74 | < 25 | < 25 | 95 to 97 °C | – | – | – | – | – | – | –
